Structures are written as SMILES. Counter-ions that a name gives are not always drawn.

This assay deals with CRAC channels (Homo sapiens (Human), UniProt Q96D31). The assay can be described thus: In-vitro CRAC channel inhibition assay in Jurkat cells (thapsigargin-induced calcium influx). The format is cell-based. How it is done: 1A. In-Vitro CRAC Channel Inhibition Assay in Jurkat Cells
Chain of CRAC channels (Q96D31 whole entry): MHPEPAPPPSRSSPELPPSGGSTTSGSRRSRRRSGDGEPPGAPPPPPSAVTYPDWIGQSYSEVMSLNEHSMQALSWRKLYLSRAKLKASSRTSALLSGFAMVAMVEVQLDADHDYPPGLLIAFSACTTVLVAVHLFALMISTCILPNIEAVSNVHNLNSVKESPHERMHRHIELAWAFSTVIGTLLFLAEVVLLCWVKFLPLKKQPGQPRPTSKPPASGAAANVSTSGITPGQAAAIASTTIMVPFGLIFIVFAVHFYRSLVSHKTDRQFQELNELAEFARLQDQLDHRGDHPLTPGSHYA
Plate is incubated at 37° C./5% CO2 for 30 min followed by further 15 min incubation at room temperature. Test compounds (DMSO stocks diluted in Ca^2+ and Mg^2+ free Hanks buffer) at desired concentrations were added to the wells and incubated for 15 min. Thapsigargin (1 μM final concentration) was added to the wells and incubated for 15 min to inhibit the Sarco-endoplasmic reticulum Ca^2+ ATPase pump thereby depleting endoplasmic calcium and raising cytosolic calcium concentrations. Store-operated calcium entry was initiated by adding extracellular Ca^2+ to a final concentration of 1.8 mM. Fluorescence was monitored over 5 min on a plate reader (BMG Labtech., Germany) with excitation at 485 nm and; an emission wavelength at 520 nm. Data were analyzed using GraphPad Prism. IC50 for each compound was determined based on the percent inhibition of thapsigargin-induced calcium influx into cells.
One may read the inhibition as the share of the control response that was lost under treatment. Take `O=C(Nc1ccc(-n2nc(C3CC3)cc2C2CC2)cc1)c1ccncc1` [Example 15, N-[4-(3,5-dicyclopropyl-1H-pyrazol-1-yl)phenyl]isonicotinamide hydrochloride]: the inhibition at 1 µM turned out to be 94%.

With `O=C(Nc1ccc(-n2nc(C3CC3)cc2C2CC2)nc1)c1cccnc1` [Example 46, N-[6-(3,5-dicyclopropyl-1H-pyrazol-1-yl)pyridin-3-yl]nicotinamide dihydrochloride], the inhibition at 1 µM was 0.26%. For `Cc1ncncc1C(=O)Nc1ccc(-n2nc(C(F)(F)F)cc2C2CC2)nc1` [Example 116, N-{6-[5-cyclopropyl-3-(trifluoromethyl)-1H-pyrazol-1-yl]pyridin-3-yl}-4-methylpyrimidine-5-carboxamide], the inhibition at 1 µM came out at 15.4%. `Cc1noc(C)c1C(=O)Nc1ccc(-n2nc(C3CC3)cc2C2CC2)cc1` [Example 5, N-[4-(3,5-dicyclopropyl-1H-pyrazol-1-yl)phenyl]-3,5-dimethylisoxazole-4-carboxamide]: the inhibition at 1 µM was found to be 48.5%. `O=C(Nc1ccc(-n2nc(C(F)(F)F)cc2C2CC2)nc1)c1cccc(F)c1F` [Example 107, N-{6-[5-cyclopropyl-3-(trifluoromethyl)-1H-pyrazol-1-yl]pyridin-3-yl}-2,3-difluorobenzamide]: the inhibition at 1 µM came out at 97%. The result for `CS(=O)(=O)c1ccc(Cl)c(C(=O)Nc2ccc(-n3nc(C(F)(F)F)cc3C3CC3)cc2)c1` [Example 65, 2-chloro-N-{4-[5-cyclopropyl-3-(trifluoromethyl)-1H-pyrazol-1-yl]phenyl}-5-(methylsulfonyl)benzamide] reads 97.9%; that for `O=C(Nc1ccc(-n2nc(C3CC3)cc2C2CC2)c(F)c1)c1cccc(F)c1F` [Example 32, N-[4-(3,5-dicyclopropyl-1H-pyrazol-1-yl)-3-fluorophenyl]-2,3-difluorobenzamide], 63.6%.

Turning to `O=C(Nc1c(F)cccc1F)c1ccc(-n2nc(C(F)(F)F)cc2C2CC2)nc1` [Example 122, 6-[5-cyclopropyl-3-(trifluoromethyl)-1H-pyrazol-1-yl]-N-(2,6-difluorophenyl) nicotinamide], the inhibition at 1 µM was 100%. The value for `Cc1noc(C)c1C(=O)Nc1ccc(-n2nc(C(F)(F)F)cc2C2CC2)cc1` [Example 57, N-{4-[5-cyclopropyl-3-(trifluoromethyl)-1H-pyrazol-1-yl]phenyl}-3,5-dimethylisoxazole-4-carboxamide] was 83.8%. The value for `Cc1ncncc1NC(=O)Nc1ccc(-n2nc(C(F)(F)F)cc2C2CC2)cc1` [Example 77, 1-{4-[5-cyclopropyl-3-(trifluoromethyl)-1H-pyrazol-1-yl]phenyl}-3-(4-methylpyrimidin-5-yl)urea] was 44%; that for `O=C(CN1CCNCC1)Nc1ccc(-n2nc(C3CC3)cc2C2CC2)cc1` [Example 25, N-[4-(3,5-dicyclopropyl-1H-pyrazol-1-yl)phenyl]-2-(piperazin-1-yl)acetamide hydrochloride] was 29%.

In the case of `O=C(Nc1ccc(-n2nc(C(F)(F)F)cc2C2CC2)nc1)c1ccncc1F` [Example 114, N-{6-[5-cyclopropyl-3-(trifluoromethyl)-1H-pyrazol-1-yl]pyridin-3-yl}-3-fluoroisonicotinamide], the inhibition at 1 µM was found to be 88.7%. The value for `Cc1ncsc1NC(=O)Nc1ccc(-n2nc(C(F)(F)F)cc2C2CC2)cc1` [Example 76, 1-{4-[5-cyclopropyl-3-(trifluoromethyl)-1H-pyrazol-1-yl]phenyl}-3-(4-methylthiazol-5-yl)urea] was 92.3%; that for `O=C(Nc1ccc(-n2nc(C3CC3)cc2C2CC2)nc1)c1ccncc1F` [Example 48, N-[6-(3,5-dicyclopropyl-1H-pyrazol-1-yl)pyridin-3-yl]-3-fluoroisonicotinamide] was 12.3%; that for `O=C(Cc1ccccn1)Nc1ccc(-n2nc(C(F)(F)F)cc2C2CC2)cc1` [Example 71, N-{4-[5-cyclopropyl-3-(trifluoromethyl)-1H-pyrazol-1-yl]phenyl}-2-(pyridin-2-yl)acetamide hydrochloride] was 100%. The result for `CS(=O)(=O)c1ccc(C(=O)Nc2ccc(-n3nc(C4CC4)cc3C3CC3)cc2)cc1` [Example 11, N-[4-(3,5-dicyclopropyl-1H-pyrazol-1-yl)phenyl]-4-(methylsulfonyl)benzamide] reads 71.9%; that for `Cc1nnsc1C(=O)Nc1ccc(-n2nc(C(F)(F)F)c(Cl)c2C2CC2)c(F)c1` [Example 95, N-{4-[4-chloro-5-cyclopropyl-3-(trifluoromethyl)-1H-pyrazol-1-yl]-3-fluorophenyl}-4-methyl-1,2,3-thiadiazole-5-carboxamide], 100%. The value for `Cc1ncoc1C(=O)Nc1ccc(-n2nc(C(F)(F)F)cc2C2CC2)c(F)c1` [Example 132, N-{4-[5-cyclopropyl-3-(trifluoromethyl)-1H-pyrazol-1-yl]-3-fluorophenyl}-4-methyloxazole-5-carboxamide] was 85.2%. For the compound `Cc1ncncc1C(=O)Nc1cc(F)c(-n2nc(C(F)(F)F)cc2C2CC2)c(F)c1` [Example 130, N-{4-[5-cyclopropyl-3-(trifluoromethyl)-1H-pyrazol-1-yl]-3,5-difluorophenyl}-4-methylpyrimidine-5-carboxamide], the inhibition at 1 µM turned out to be 5.31%. For `CSc1ccc(Cl)c(C(=O)Nc2ccc(-n3nc(C(F)(F)F)cc3C3CC3)cc2)c1` [Example 64, 2-chloro-N-{4-[5-cyclopropyl-3-(trifluoromethyl)-1H-pyrazol-1-yl]phenyl}-5-(methylthio)benzamide], the inhibition at 1 µM was determined as 100%.

For `O=C(Cc1ccc(F)cc1)Nc1ccc(-n2nc(C3CC3)cc2C2CC2)cc1` [Example 20, N-[4-(3,5-dicyclopropyl-1H-pyrazol-1-yl)phenyl]-2-(4-fluorophenyl)acetamide], the inhibition at 1 µM is 70.2%. As for `O=C(Nc1ccc(-n2nc(C(F)(F)F)cc2C2CC2)nc1)c1ccncc1` [Example 113, N-{6-[5-cyclopropyl-3-(trifluoromethyl)-1H-pyrazol-1-yl]pyridin-3-yl}isonicotinamide hydrochloride], the inhibition at 1 µM was 100%. The value for `O=C(Cc1ccncc1)Nc1ccc(-n2nc(C(F)(F)F)cc2C2CC2)nc1` [Example 118, N-{6-[5-cyclopropyl-3-(trifluoromethyl)-1H-pyrazol-1-yl]pyridin-3-yl}-2-(pyridin-4-yl)acetamide hydrochloride] was 20.9%; that for `Cc1ncncc1NC(=O)c1ccc(-n2nc(C(F)(F)F)cc2C2CC2)c(F)c1` [Example 134, 4-[5-cyclopropyl-3-(trifluoromethyl)-1H-pyrazol-1-yl]-3-fluoro-N-(4-methylpyrimidin-5-yl)benzamide] was 18.6%. As to `Cc1nc(C)c(C(=O)Nc2ccc(-n3nc(C4CC4)cc3C3CC3)nc2)s1` [Example 40, N-[6-(3,5-dicyclopropyl-1H-pyrazol-1-yl)pyridin-3-yl]-2,4-dimethylthiazole-5-carboxamide], the inhibition at 1 µM was found to be 12.6%.

Consider `Cc1ccccc1C(=O)Nc1ccc(-n2nc(C3CC3)cc2C2CC2)c(F)c1` [Example 31, N-[4-(3,5-dicyclopropyl-1H-pyrazol-1-yl)-3-fluorophenyl]-2-methyl benzamide], for which the inhibition at 1 µM was determined as 77%.

(Values after patent US10668051B2, “Modulators of calcium release-activated calcium channel” (Rhizen Pharmaceuticals SA, priority 2009, dated 2020).)
